# Experimental data taken from US20230295728A1, “METHODS FOR DIAGNOSING AND TREATING AUTISM” (CENTRE NATIONAL DE LA RECHERCHE SCIENTIFIQUE (CNRS), priority 2020, published 2023).
# Entries after “also recorded” stand apart in the source; their conditions may differ.
# Key:
# [1] = tested on: Balb c mice; assay: Novel object recognition test; assay type: in vivo, mouse
# Excerpt: The time spent with familiar versus novel objects highlighted a common characteristic of the test group versus the controls. Specifically, it indicated differences in the interest in and recognition of objects. NOR (novel object recognition) is a well-established test in a variety of animal models with multiple protocols. In general, it involves two trials of cognition evaluation based on the spontaneous exploratory conduct of a mouse to measure recognition memory. In the first trial, we used (first-day acquisition) animals that were exposed to two similar objects (small orange boxes) in a chamber for 5 minutes. During the second trial (second-day retention) mice were again exposed to two dissimilar objects for 5 minutes, including one familiar object from the first trial and one new object (blue box). Object recognition was measured (data not shown), according to the difference in the time spent with the familiar object versus the new object.
# [2] = tested on: B6D2 and Balb c males
# Experimental: The control group received the same volume (0.1 ml) of 0.9% saline buffer. At 14 days post birth, all offspring (8-12 pups from each litter) were injected (intraperitoneally) with VPA at […] or with saline buffer as a control. […] The F1 to F2 generations were obtained following treatment with the 300 to 500 mg/kg VPA doses. The F1 generation derived from VPA-injected F0 fathers is referred to as VPA-F1, while that from saline-injected fathers is identified as the control. Adult VPA-F1 males were bred with normal females.
# VPA is known to perturb brain formation during early development^22 and to induce characteristic traits of ASD pathology^23,24. […] We treated the animals after birth rather than treating pregnant females as in previous studies^23,24 to avoid the multiple effects on embryonic development generated via the mothers during pregnancy as well as the effects on germ cells. […] In contrast, the injection of pregnant females often leads to an unpredicted arrest of embryonic development and mortality of the mothers either during pregnancy or after the birth of their progenies.
# The spermatogonial stem cells that will continuously divide and differentiate throughout the life of the male are present, leaving open the possibility that some changes in transcript levels may be transmitted to the next generation.
# [3] = tested on: six-microRNAs (miR-19a-3p, miR-361-5p, miR-3613-3p, miR-150-5p, miR-126-3p, miR-499a-5p); assay: miRNA analysis of the mouse models (q-PCR of blood, sperm, hippocampus RNA); assay type: in vivo; details: VPA-treated mice (500 mg/kg)
# Experimental: Routine qPCR for miR detection and validation^41 was performed with the miScript PCR control set (catalog number 218380; Qiagen, Germany). The miScript™ miRNA PCR Array Human Serum & Plasma 384HC (Cat No: 331223) was used in this study. The Human Serum & Plasma 384HC miScript miRNA PCR Array profiles the expression of 372 miRNAs) that are detectable in serum and plasma using the miScript PCR system. SNORD61, SNORD68, SNORD72, SNORD95, SNORD96A, RNU6-2, miRTC, miRTC, and PPC were used as controls. The data were normalized using the 2^−ΔΔct method.
# Total RNA was prepared from mouse tissues (blood, hippocampus, sperm) according to published procedures^42. Sperm cells were isolated from the epididymis, and floating sperm were recovered by successive washing (PBS) and centrifugation at 3000 rpm. Briefly, RNAs were extracted from all tissues (hippocampus, blood and sperm cells) via a standard protocol. Qiazol Lysis Buffer (Cat. No: 79306; Qiagen, Texas, USA) was used in accordance with the manufacturer's instructions. The Qiazol-extracted aqueous phase was ethanol precipitated, followed by washing twice with 70% ethanol. To remove the remaining DNA, the PCR samples were treated with DNase according to the manufacturer's instructions.
# [4] = tested on: Balb c mice; assay: Tail suspension test; assay type: in vivo, mouse
# Experimental: Adult mice (2 months old) (Balb c strain) weighing 25-27 g on the test day. The apparatus used for the tail test consisted of two filter covers each and enabled three mice to be tested simultaneously. Each mouse was suspended by the tail from a hook connected to the strain gauge, to which they were attached with adhesive tape with a length of 18 cm. The duration of each trial was 360 seconds. The tail suspension test was recorded using a SONY HDR-CX240E video recorder. […] An immobility posture indicates the abandonment of struggling and, thus, depression. Periods of agitation and immobility are reported (data not shown).
# [5] = tested on: Balb c mice; assay: Glass marble burying test; assay type: in vivo, mouse
# Experimental: According to the described protocols, newly filled bedding cages were prepared with 20 marbles spaced on the bedding surface. Mice were individually caged. After 30 minutes, each mouse was returned to its home cage, and the buried marbles were counted (data not shown). Marbles that were not buried were not included in the analysis.
# [6] = tested on: Balb c mice; assay: Open field and Morris water tests; assay type: in vivo, mouse; details: 500 mg/kg VPA group (data not shown)
# [7] = tested on: Balb c mice; assay: Social interaction test (three chambers); assay type: in vivo, mouse
# Experimental: To determine whether these interactions varied between the groups of mice, they were filmed for 5 minutes. There are many different ways to follow social interaction. Here, we present the results in a simple way based on conditions in a cage separated into three sections. The mice being tested were placed in the center of the cage and were filmed to calculate the time that they spent close to the empty compartment or the compartment occupied by another mouse. The three chambers were separated by square doors in the two inner walls connecting to the center area. Briefly, the test mouse was introduced in the center to initiate habituation for 5 minutes while blocking access to the side compartments. The first test was conducted by placing an unfamiliar mouse inside an empty wire cage in one of the side chambers to measure the social interaction of the subject mouse without direct social contact. On the other side, there was an empty wire cage. Each test was performed for 10 minutes (data not shown), and the floor surfaces were wiped with 70% ethanol between trials. The accumulated time spent in each compartment and the sociability or social preference indices were measured to quantify the social behavior of the mice.
structure (smiles),measurement,setting,value
"CCCC(CCC)C(=O)O [VPA, valproic acid]",time spent with familiar versus novel objects,"[1]; 400 mg/kg, only for familiar objects",Some effect was detectable
same,time spent with familiar versus novel objects,"[1]; 500 mg/kg, treated males",lost interest and spent the same amount of time with the two objects but spent less time overall with both objects
same,sudden mortality,"[2]; 500 mg/kg i.p., males",without sudden mortality
same,mortality / lethality at high doses,"[2]; 600-700 mg/kg, one i.p. injection at 14 days post birth, both mouse lines",dramatic lethality; also recorded: sudden dramatic mortality; also recorded: lethal
same,"breeding behaviour, fertility, testes","[2]; mouse, in vivo, 500 mg/kg","a few males became aggressive toward females during breeding, showed reduced fertility and smaller testes"
same,expression of the six-microRNAs,[3],decreases not only in the blood but also in the sperm and hippocampus
same,immobility / struggle-related behaviour,"[4]; 500 mg/kg, F0 treated males",a significant change that indicated abandonment and depression was observed
same,immobility / struggle-related behaviour,"[4]; F1 generation of VPA-treated fathers, compared to F0",the reverse effect was observed
same,marbles buried in 30 minutes,[5]; 500 mg/kg VPA F1 generation,"the same behavior as in the founders, with significantly less activity"
same,marbles buried in 30 minutes,"[5]; 500 mg/kg, treated males",markedly less interest in burying marbles
same,overall activity,[6],decrease in the overall activity as well by half
same,overall activity in social interaction tests,[7]; 500 mg/kg VPA group,decrease in overall activity
same,time spent close to chamber with mouse versus empty chamber,"[7]; 500 mg/kg, treated males",showed less interest and spent an even smaller amount of time close to the empty cage
